Measurements published in ChEMBL document CHEMBL5696443 (Clin Cancer Res, 2016).
Active and inactive are the calls of the source. The calls are words filed in the database; no cut-off is given here.

Tests used:
[1] = molecular target: G protein-coupled receptor kinase 4 (Homo sapiens) (UniProt P32298); assay: Inhibition of human GRK4 at 1 uM using casein as substrate in presence of [gamma33P]-ATP by HotSpot assay relative to control
[2] = molecular target: Testis-specific serine/threonine-protein kinase 1 (Homo sapiens, UniProt Q9BXA7); assay: Inhibition of human TSSK1 using KKKVSRSGLYRSPSMPENLNRPR as substrate in presence of [gamma33P]-ATP by HotSpot assay
[3] = molecular target: Ephrin type-B receptor 2 (Homo sapiens) (UniProt P29323); assay: Inhibition of human EPHB2 at 1 uM using poly (Glu, Tyr)4:1 as substrate in presence of [gamma33P]-ATP by HotSpot assay relative to control
[4] = molecular target: Tyrosine-protein kinase JAK3 (Homo sapiens) (UniProt P52333); assay: Inhibition of human JAK3 at 1 uM using MBP as substrate in presence of [gamma33P]-ATP by HotSpot assay relative to control
[5] = molecular target: Serine/threonine-protein kinase PAK 6 (Homo sapiens) (UniProt Q9NQU5); assay: Inhibition of human PAK6 at 1 uM using RRRLSFAEPG as substrate in presence of [gamma33P]-ATP by HotSpot assay relative to control
NCI-H838 = settings: time 72 hrs
[6] = molecular target: Mitogen-activated protein kinase 8 (Homo sapiens) (UniProt P45983); assay: Inhibition of human JNK1a1 at 1 uM using ATF2 as substrate in presence of [gamma33P]-ATP by HotSpot assay relative to control
[7] = molecular target: cAMP-dependent protein kinase catalytic subunit PRKX (Homo sapiens) (UniProt P51817); assay: Inhibition of human PRKX at 1 uM using LRRASLG as substrate in presence of [gamma33P]-ATP by HotSpot assay relative to control
[8] = Average plasma concentration in human at 180 mg administered once a day; type: ADME; settings: in vivo
BaF3 = assay: In vivo inhibition of ALK signaling in mouse implanted with mouse BaF3 cells expressing EML4-ALK L1196M mutant assessed as inhibition of ALK phosphorylation at 25 mg/kg, po administered as single dose and measured at 6 to 24 hrs by ELISA; type: functional, organism-based; settings: time 6-24 hrs
cells [9] = settings: Homo sapiens, BaF3, 72 h
[10] = molecular target: Serine/threonine-protein kinase Nek4 (Homo sapiens) (UniProt P51957); assay: Inhibition of human NEK4 at 1 uM using MBP as substrate in presence of [gamma33P]-ATP by HotSpot assay relative to control
[11] = Toxicity in CB-17/SCID mouse implanted with ALK positive mouse BaF3 cells expressing EML4-ALK G1202R mutant assessed as effect on body weight at 25 to 50 mg/kg, po administered once daily and measured after 6 days; type: organism-based; settings: in vivo, 144 h, dose 25-50 mg/kg, time 6 day
[12] = molecular target: Dual specificity tyrosine-phosphorylation-regulated kinase 3 (Homo sapiens) (UniProt O43781); assay: Inhibition of human DYRK3 at 1 uM using RRRFRPASPLRGPPK as substrate in presence of [gamma33P]-ATP by HotSpot assay relative to control
KARPAS-299 = assay: Inhibition of ERK phosphorylation in ALK-positive human KARPAS-299 cells at 1 to 1000 nM incubated for 1 hrs by immunoblot analysis; type: cell-based; settings: dose 1-1000 nM
[13] = molecular target: Vascular endothelial growth factor receptor 1 (Homo sapiens) (UniProt P17948); assay: Inhibition of human FLT1 at 1 uM using poly (Glu, Tyr)4:1 as substrate in presence of [gamma33P]-ATP by HotSpot assay relative to control
[14] = molecular target: Glycogen synthase kinase-3 beta (Homo sapiens) (UniProt P49841); assay: Inhibition of human GSK3beta at 1 uM using YRRAAVPPSPSLSRHSSPHQ(pS)EDEEE as substrate in presence of [gamma33P]-ATP by HotSpot assay relative to control
[15] = molecular target: Mitogen-activated protein kinase kinase kinase 20 (Homo sapiens) (UniProt Q9NYL2); assay: Inhibition of human ZAK at 1 uM using MBP as substrate in presence of [gamma33P]-ATP by HotSpot assay relative to control
[16] = system: EML4-ALK (Homo sapiens), Q9UM73+Q9HC35 [L1196M]; settings: BaF3, dose 200.0 nmol/L, time 3-5 weeks
[17] = molecular target: Serine/threonine-protein kinase PAK 3 (Homo sapiens) (UniProt O75914); assay: Inhibition of human PAK3 at 1 uM using RRRLSFAEPG as substrate in presence of [gamma33P]-ATP by HotSpot assay relative to control
cells [18] = settings: Homo sapiens, BaF3, 72 h; remark: listed apart in the source
NCI-H3122 = assay: Inhibition of ERK phosphorylation in ALK-positive human NCI-H3122 cells at 1 to 1000 nM incubated for 1 hrs by immunoblot analysis; type: cell-based; settings: dose 1-1000 nM
[19] = molecular target: Tyrosine-protein kinase ZAP-70 (Homo sapiens) (UniProt P43403); assay: Inhibition of human ZAP70 at 1 uM using MBP as substrate in presence of [gamma33P]-ATP by HotSpot assay relative to control
Mus musculus = assay: In vivo inhibition of ALK phosphorylation in SCID Beige mouse xenografted with ALK positive human KARPAS-299 cells at 10 to 50 mg/kg, po administered once daily for 4 days and measured 24 hrs after last dose by ELISA; type: functional, organism-based; settings: dose 10-50 mg/kg, time 5.0 day
[20] = molecular target: Maternal embryonic leucine zipper kinase (Homo sapiens, UniProt Q14680); assay: Inhibition of human MELK using KKLNRTLSFAEPG as substrate in presence of [gamma33P]-ATP by HotSpot assay
NCI-H2228 [21] = assay: Antitumor activity against ALK positive human NCI-H2228 cells xenografted in SCID beige mouse assessed as inhibition of tumor growth administered orally once daily for 21 days; type: functional, cell-based; settings: dose 10-50 mg/kg, route po, time 21.0 day
NCI-H2228 [22] = assay: Antitumor activity against ALK positive human NCI-H2228 cells xenografted in CB-17/SCID orthotopic brain tumor mouse model assessed as median survival time at 50 mg/kg po administered daily and measured after 64 days (reference value: 28 days); type: functional; settings: time 64 day
[23] = molecular target: Tyrosine-protein kinase Fgr (Homo sapiens, UniProt P09769); assay: Inhibition of human FGR using poly (Glu, Tyr)4:1 as substrate in presence of [gamma33P]-ATP by HotSpot assay
Homo sapiens = species on record: Homo sapiens; assay: Inhibition of human BRAF V600E at 1 uM using MEK1 as substrate in presence of [gamma33P]-ATP by HotSpot assay relative to control
[24] = molecular target: Vascular endothelial growth factor receptor 2 (Homo sapiens, UniProt P35968); assay: Inhibition of human VEGFR2 using poly (Glu, Tyr)4:1 as substrate in presence of [gamma33P]-ATP by HotSpot assay
Chain of Vascular endothelial growth factor receptor 2 (P35968 whole entry): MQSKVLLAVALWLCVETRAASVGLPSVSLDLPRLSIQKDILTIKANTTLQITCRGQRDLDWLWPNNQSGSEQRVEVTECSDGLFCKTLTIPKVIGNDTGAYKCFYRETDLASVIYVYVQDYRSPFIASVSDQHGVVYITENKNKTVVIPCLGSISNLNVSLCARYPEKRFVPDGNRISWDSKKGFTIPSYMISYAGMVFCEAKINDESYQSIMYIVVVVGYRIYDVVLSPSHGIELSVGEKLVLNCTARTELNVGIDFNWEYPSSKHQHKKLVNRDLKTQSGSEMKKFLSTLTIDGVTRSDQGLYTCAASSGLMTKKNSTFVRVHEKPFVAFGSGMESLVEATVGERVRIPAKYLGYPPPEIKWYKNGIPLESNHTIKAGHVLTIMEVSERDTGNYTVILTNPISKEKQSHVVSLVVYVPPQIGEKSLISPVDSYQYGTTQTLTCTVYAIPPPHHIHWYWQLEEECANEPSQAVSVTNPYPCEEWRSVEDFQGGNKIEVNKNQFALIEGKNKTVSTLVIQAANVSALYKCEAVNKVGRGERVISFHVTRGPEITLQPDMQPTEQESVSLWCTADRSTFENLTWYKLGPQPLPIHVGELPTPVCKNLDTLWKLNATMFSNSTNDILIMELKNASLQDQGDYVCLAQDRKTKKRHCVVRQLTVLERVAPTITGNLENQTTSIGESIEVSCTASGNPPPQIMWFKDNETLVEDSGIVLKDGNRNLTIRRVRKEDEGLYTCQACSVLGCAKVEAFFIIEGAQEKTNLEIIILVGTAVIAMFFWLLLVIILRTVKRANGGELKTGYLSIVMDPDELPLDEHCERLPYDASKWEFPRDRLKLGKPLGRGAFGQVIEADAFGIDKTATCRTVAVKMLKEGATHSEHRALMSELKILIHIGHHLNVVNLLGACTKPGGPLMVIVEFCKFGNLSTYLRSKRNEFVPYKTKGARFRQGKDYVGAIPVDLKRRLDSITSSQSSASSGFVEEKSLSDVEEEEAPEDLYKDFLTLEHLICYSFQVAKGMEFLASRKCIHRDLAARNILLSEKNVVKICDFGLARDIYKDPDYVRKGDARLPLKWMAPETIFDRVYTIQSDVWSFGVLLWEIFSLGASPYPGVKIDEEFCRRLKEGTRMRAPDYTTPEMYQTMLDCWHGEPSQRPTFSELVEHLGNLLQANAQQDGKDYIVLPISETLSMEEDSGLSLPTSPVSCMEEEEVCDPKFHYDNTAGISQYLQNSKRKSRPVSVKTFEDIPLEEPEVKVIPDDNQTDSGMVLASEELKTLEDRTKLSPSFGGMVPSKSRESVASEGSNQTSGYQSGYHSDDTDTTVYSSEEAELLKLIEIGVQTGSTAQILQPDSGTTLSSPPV

Chain of cAMP-dependent protein kinase catalytic subunit PRKX (Homo sapiens) (P51817 whole entry): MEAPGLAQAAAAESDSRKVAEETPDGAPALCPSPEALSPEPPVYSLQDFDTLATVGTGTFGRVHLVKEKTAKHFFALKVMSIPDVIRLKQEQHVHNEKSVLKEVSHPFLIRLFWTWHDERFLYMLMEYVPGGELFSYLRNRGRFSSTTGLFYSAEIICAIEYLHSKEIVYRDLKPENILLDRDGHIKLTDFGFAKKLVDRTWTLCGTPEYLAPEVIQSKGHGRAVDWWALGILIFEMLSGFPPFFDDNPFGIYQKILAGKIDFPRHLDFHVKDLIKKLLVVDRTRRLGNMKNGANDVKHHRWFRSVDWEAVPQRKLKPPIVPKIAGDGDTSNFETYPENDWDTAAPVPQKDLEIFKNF
Chain of Testis-specific serine/threonine-protein kinase 1 (Q9BXA7 whole entry): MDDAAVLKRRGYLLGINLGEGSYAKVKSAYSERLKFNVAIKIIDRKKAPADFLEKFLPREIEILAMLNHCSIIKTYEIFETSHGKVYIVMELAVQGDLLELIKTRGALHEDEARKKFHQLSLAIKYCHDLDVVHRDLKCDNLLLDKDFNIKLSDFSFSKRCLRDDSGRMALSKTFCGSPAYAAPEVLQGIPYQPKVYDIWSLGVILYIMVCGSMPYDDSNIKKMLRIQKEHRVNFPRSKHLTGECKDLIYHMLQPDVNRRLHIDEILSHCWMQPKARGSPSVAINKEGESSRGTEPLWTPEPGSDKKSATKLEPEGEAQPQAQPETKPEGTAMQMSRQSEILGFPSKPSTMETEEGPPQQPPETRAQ
Chain of Serine/threonine-protein kinase PAK 6 (Homo sapiens) (Q9NQU5 whole entry, looked up): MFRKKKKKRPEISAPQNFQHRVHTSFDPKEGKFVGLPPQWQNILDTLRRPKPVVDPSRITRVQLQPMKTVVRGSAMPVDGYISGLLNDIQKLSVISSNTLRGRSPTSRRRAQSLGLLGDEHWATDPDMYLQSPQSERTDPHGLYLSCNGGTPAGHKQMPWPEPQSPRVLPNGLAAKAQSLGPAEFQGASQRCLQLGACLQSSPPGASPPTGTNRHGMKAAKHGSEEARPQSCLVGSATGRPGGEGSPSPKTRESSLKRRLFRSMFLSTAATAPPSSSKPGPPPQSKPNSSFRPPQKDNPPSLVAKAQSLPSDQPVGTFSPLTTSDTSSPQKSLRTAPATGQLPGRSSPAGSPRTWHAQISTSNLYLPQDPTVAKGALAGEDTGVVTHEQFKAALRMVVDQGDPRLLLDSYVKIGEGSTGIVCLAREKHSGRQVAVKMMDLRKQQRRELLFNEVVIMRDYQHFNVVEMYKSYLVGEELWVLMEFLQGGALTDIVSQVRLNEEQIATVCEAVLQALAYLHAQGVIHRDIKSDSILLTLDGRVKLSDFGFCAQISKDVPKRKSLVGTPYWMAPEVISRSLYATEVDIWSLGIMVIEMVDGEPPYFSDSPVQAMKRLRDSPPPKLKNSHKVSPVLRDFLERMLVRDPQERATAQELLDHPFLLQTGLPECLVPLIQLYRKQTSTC
Chain of Dual specificity tyrosine-phosphorylation-regulated kinase 3 (Homo sapiens) (O43781 whole entry): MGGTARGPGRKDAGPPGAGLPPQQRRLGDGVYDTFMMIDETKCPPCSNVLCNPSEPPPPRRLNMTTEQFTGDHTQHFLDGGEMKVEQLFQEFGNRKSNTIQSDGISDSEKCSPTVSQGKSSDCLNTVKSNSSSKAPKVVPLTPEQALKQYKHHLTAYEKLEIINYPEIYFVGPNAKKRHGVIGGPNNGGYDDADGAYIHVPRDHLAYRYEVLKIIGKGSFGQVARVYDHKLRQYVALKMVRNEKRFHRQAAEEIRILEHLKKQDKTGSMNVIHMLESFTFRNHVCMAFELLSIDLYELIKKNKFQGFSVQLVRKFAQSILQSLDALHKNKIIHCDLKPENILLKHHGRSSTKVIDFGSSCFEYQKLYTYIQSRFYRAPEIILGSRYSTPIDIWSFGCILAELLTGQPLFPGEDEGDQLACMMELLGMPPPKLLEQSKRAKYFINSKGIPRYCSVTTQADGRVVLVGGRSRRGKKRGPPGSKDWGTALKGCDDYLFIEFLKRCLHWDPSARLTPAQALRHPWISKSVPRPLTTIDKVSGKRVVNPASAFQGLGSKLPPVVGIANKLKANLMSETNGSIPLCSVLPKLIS
Chain of Serine/threonine-protein kinase PAK 3 (Homo sapiens) (O75914 whole entry, looked up): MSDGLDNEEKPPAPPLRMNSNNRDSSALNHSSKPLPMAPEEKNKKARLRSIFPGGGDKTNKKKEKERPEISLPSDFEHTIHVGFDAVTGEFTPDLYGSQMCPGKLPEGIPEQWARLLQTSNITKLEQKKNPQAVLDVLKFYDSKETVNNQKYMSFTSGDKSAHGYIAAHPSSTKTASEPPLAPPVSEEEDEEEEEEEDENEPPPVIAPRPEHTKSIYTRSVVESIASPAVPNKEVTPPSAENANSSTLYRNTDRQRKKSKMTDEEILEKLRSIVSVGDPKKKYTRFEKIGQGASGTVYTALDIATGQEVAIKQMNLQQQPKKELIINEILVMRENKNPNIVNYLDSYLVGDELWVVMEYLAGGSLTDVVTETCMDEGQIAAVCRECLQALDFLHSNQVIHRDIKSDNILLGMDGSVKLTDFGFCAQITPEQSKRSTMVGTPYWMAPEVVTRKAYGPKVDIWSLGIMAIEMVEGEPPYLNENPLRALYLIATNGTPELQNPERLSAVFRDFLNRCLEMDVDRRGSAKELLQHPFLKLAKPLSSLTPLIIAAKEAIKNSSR
Chain of Ephrin type-B receptor 2 (Homo sapiens) (P29323 whole entry): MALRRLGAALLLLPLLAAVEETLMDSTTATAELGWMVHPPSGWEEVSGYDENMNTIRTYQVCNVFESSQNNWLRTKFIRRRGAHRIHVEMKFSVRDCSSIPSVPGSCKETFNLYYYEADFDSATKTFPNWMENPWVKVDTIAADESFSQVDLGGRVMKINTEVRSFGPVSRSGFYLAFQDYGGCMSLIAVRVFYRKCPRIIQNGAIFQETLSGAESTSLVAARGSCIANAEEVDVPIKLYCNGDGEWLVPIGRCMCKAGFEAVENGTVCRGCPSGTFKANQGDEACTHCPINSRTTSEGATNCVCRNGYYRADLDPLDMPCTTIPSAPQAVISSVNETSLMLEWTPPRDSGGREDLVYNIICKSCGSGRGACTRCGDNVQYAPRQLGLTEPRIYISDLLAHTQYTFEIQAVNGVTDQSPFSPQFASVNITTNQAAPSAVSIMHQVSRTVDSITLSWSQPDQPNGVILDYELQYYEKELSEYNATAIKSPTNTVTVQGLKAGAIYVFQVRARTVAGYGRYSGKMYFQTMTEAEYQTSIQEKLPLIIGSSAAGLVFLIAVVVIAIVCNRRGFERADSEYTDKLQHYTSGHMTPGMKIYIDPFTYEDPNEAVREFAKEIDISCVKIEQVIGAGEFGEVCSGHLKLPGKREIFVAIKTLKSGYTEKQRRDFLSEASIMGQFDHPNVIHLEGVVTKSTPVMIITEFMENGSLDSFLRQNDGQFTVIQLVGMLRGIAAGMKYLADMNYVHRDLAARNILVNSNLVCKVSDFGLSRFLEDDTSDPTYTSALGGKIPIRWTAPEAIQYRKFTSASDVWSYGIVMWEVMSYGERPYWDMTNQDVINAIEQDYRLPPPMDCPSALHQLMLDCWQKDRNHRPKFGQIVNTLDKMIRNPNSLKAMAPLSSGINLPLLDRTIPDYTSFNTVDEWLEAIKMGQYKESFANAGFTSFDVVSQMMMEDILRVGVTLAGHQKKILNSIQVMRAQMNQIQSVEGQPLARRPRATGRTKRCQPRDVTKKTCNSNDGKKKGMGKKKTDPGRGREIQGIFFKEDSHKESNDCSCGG

SMILES: COc1cc(N2CCC(N3CCN(C)CC3)CC2)ccc1Nc1ncc(Cl)c(Nc2ccccc2P(C)(C)=O)n1 [BRIGATINIB]
- inhibition [1]: < 90%
- IC50 [2]: 4.4 nM
- inhibition [3]: < 90%
- inhibition [4]: < 90%
- inhibition [5]: < 90%
- GI50 (NCI-H838): 503 nM
- inhibition [6]: < 90%
- inhibition [7]: < 90%
- Cave [8]: 1447 nM
- inhibition (BaF3): Active
- IC50 (cells [9]): 17 nM
- inhibition [10]: < 90%
- Activity [11]: Non-Toxic
- inhibition [12]: < 90%
- inhibition (KARPAS-299): Active
- inhibition [13]: < 90%
- inhibition [14]: < 90%
- inhibition [15]: < 90%
- inhibition [16]: inactive
- inhibition [17]: < 90%
- IC50 (cells [18]): 31 nM
- inhibition (NCI-H3122): Active
- inhibition [19]: < 90%
- Activity (Mus musculus): Active
- IC50 [20]: 895 nM
- Activity (NCI-H2228 [21]): Dose-Dependent Effect
- MSD (NCI-H2228 [22]): >64 days
- IC50 [23]: 492 nM
- inhibition (Homo sapiens): < 90%
- IC50 [24]: 816 nM
